Literature values in paper PMC2912428 (Bioconjugate chemistry, 2010).

System: SAv-Y43A
Settings: SAv-Y43A vs WT SAv ref 21

Compound: O=C(O)CCCC[C@@H]1SC[C@@H]2NC(=O)N[C@@H]21 [biotin, D-biotin]
- lower affinity of SAv-Y43A than wild-type SAv: 67 fold
